Results from patent US8637252B2, “Methods and compositions for determining altered susceptibility of HIV-1 to anti-HIV drugs” (Monogram Biosciences, Inc., priority 2011, dated 2014).
Several values for one entry are separate records, joined by “and”; a condition that tells them apart may be missing. Equal values may be shown once.

Legend:
[1] = system: HIV-1 (patient-derived POL segment); experiment: phenotypic drug resistance test, resistance test vectors with patient-derived POL segment (entire pol gene), luciferase, 293 cells; assay type: cell-based
Description: (§1) Patient-derived segment(s) corresponding to the entire pol gene, encoding HIV protease, reverse transcriptase (including RNAse H), and integrase (hereinafter “POL”), the portion of pol encoding amino acids 1-305 of reverse transcriptase (hereinafter “PR-RT”), the portion of pol encoding amino acids 319-440 of reverse transcriptase (including RNAse H), and integrase (hereinafter “RHIN”), were amplified by the reverse transcription-polymerase chain reaction method (RT-PCR) using viral RNA isolated from viral particles present in the plasma or serum of HIV-infected individuals as described below. The portion of pol encoding protease, amino acids 1-531 of reverse transcriptase (including RNase H) (hereinafter “PRRT-RH”), or the portion of pol encoding protease, reverse transcriptase (including RNAse H) and integrase (hereinafter “PRRT-RHIN”), were assembled from amplicons described above by standard recombinant DNA techniques involving a KpnI restriction site at amino acid 400 or a Pin A1 site at amino acid 315.
(§2) Virus was pelleted by centrifugation at 20,400×g for 60 min from plasma (typically, 1 ml) prepared from blood samples collected in evacuated tubes containing either EDTA, acid-citrate dextrose, or heparin as an anticoagulant. Virus particles were disrupted by resuspending the pellets in 200 [1.1 of lysis buffer (4 M guanidine thiocyanate, 0.1 M Tris HCl (pH 8.0), 0.5% sodium lauryl sarcosine, 1% dithiothreitol). RNA was extracted from viral lysates by using oligo(dT) linked to magnetic beads (Dynal, Oslo, Norway). Reverse transcription was performed with Superscript III (Invitrogen) at 50 degrees for 1 hour using primer 1.
(§3) From the resultant cDNA either POL or RHIN sequences were amplified using the Advantage High Fidelity PCR kit (BD Biosciences; Clontech). POL amplification products are made using forward Primer 3 containing an Apal site and reverse Primer 4 containing a Xho 1 site. RHIN amplification products are made using forward Primer 2 containing a P1NA1 site and reverse Primer 4 containing a Xho 1 site.
(§4) A retroviral vector designed to measure antiretroviral drug susceptibility was constructed by using an infectious molecular clone of HIV-1. The vector, referred to herein as an indicator gene viral vector (IGVV), is replication defective and contains a luciferase expression cassette inserted within a deleted region of the envelope (env) gene. The IGVV is described in U.S. Pat. No. 5,837,464 (International Publication Number WO 97/27319) which is hereby incorporated by reference in its entirety. This retroviral vector was further modified to allow insertion of either the entire pol gene (POL) or the portion of poi encoding amino acids 319-440 of reverse transcriptase, the RNase H portion of reverse transcriptase, and integrase (REIN) by engineering an Xho l restriction enzyme recognition site into vif. Prior to doing this, an Xho 1 site in nef was deleted. Resistance Test vectors (RTVs) were constructed by incorporating amplified POL or RHIN into the IGVV by using Apal and Xhol or PinAI and Xho 1 restriction sites respectively. RTVs were prepared as libraries (pools) in order to capture and preserve the pol or RHIN sequence heterogeneity of the virus in the patient. POL amplification products were digested with Apal and Xhol, purified by agarose gel electrophoresis, and ligated to ApaI- and Xhol-digested IGVV DNA. RHIN amplification products were digested with PinAI and Xho/, purified by agarose gel electrophoresis, and ligated to PinAI and Xhol-digested IGVV DNA. Ligation reactions were used to transform competent Escherichia coli (Invitrogen, Carlsbad, Calif.). An aliquot of each transformation was plated onto agar, and colony counts were used to estimate the number of patient-derived segments represented in each RTV library. RTV libraries that comprised less than 50 members are not considered representative of the patient virus. […]

[2] = system: HIV-1 (patient-derived RHIN segment); experiment: phenotypic drug resistance test, resistance test vectors with patient-derived RHIN segment, luciferase, 293 cells; assay type: cell-based
Description: as §1, §2, §3, §4

[3] = Sample 47 (K103K/N, V106V/A, Y181Y/C, G190G/A)
[4] = Sample 58 (K103N, Y181Y/C, G190G/A)
[5] = Sample 62 (K103H, P225P/H, T369T/I)
[6] = Sample 90 (K103K/N, Y181C, G190A)

For CC(C)Nc1cccnc1N1CCN(C(=O)c2cc3cc(NS(C)(=O)=O)ccc3[nH]2)CC1 [DLV, delavirdine], the “fold change in IC50, pol” value ([1]; Sample 31 (K103N)) was 28.0 fold, the pol/PR-RT ratio ([1]; Sample 31 (K103N)) was 1.7 and the “fold change in IC50, pol” value ([1]; Sample 33 (K103S)) was 5.7 fold. The pol/PR-RT ratio ([1]; Sample 33 (K103S)) was 0.7, the “fold change in IC50, pol” value ([1]; Sample 34) was 0.4 fold and the pol/PR-RT ratio ([1]; Sample 34) was 1.0. For the same compound, the “fold change in IC50, pol” value ([1]; Sample 35 (K103H)) was 5.4 fold, the pol/PR-RT ratio ([1]; Sample 35 (K103H)) was 0.8 and the “fold change in IC50, pol” value ([1]; Sample 36 (K103K/W)) was 1.9 fold. The pol/PR-RT ratio ([1]; Sample 36 (K103K/W)) was 0.2, the “fold change in IC50, pol” value ([1]; Sample 38 (K103N)) was 66.0 fold and the pol/PR-RT ratio ([1]; Sample 38 (K103N)) was 0.5. For the same compound, the “fold change in IC50, pol” value ([1]; Sample 39 (T369A)) was 1.2 fold, the pol/PR-RT ratio ([1]; Sample 39 (T369A)) was 5.1 and the “fold change in IC50, pol” value ([1]; Sample 42 (G190G/A)) was 0.2 fold. The pol/PR-RT ratio ([1]; Sample 42 (G190G/A)) was 0.5, the “fold change in IC50, pol” value ([1]; Sample 45) was 0.1 fold and the pol/PR-RT ratio ([1]; Sample 45) was 0.7. For the same compound, the “fold change in IC50, pol” value [1, 3] was 5.4 fold, the pol/PR-RT ratio [1, 3] was 0.9 and the “fold change in IC50, pol” value ([1]; Sample 50 (K103N)) was 65.4 fold. The pol/PR-RT ratio ([1]; Sample 50 (K103N)) was 0.3, the “fold change in IC50, pol” value ([1]; Sample 51) was 0.3 fold and the pol/PR-RT ratio ([1]; Sample 51) was 0.9. The “fold change in IC50, pol” value ([1]; Sample 52) was 2.7 fold, the pol/PR-RT ratio ([1]; Sample 52) was 0.8 and the “fold change in IC50, pol” value [1, 4] was 250.0 fold. For the same compound, the pol/PR-RT ratio [1, 4] was 1.7, the “fold change in IC50, pol” value [1, 5] was 140.0 fold and 140.00 fold and the pol/PR-RT ratio [1, 5] was 8.8. The “fold change in IC50, pol” value ([1]; Sample 64 (T369T/A)) was 0.3 fold, the pol/PR-RT ratio ([1]; Sample 64 (T369T/A)) was 0.2 and the “fold change in IC50, pol” value ([1]; Sample 69) was 1.8 fold. The pol/PR-RT ratio ([1]; Sample 69) was 1.2, the “fold change in IC50, pol” value ([1]; Sample 72) was 1.2 fold and the pol/PR-RT ratio ([1]; Sample 72) was 1.4. The “fold change in IC50, pol” value ([1]; Sample 80 (K103K/N, Y181Y/C)) was 22.0 fold, the pol/PR-RT ratio ([1]; Sample 80 (K103K/N, Y181Y/C)) was 0.3 and the “fold change in IC50, pol” value ([1]; Sample 81 (K103N, P225H)) was 9.5 fold. For the same compound, the pol/PR-RT ratio ([1]; Sample 81 (K103N, P225H)) was 0.8, the “fold change in IC50, pol” value ([1]; Sample 84) was 0.5 fold and the pol/PR-RT ratio ([1]; Sample 84) was 0.6. For the same compound, the “fold change in IC50, pol” value ([1]; Sample 85) was 69.0 fold, the pol/PR-RT ratio ([1]; Sample 85) was 2.7 and the “fold change in IC50, pol” value ([1]; Sample 87) was 0.7 fold. The pol/PR-RT ratio ([1]; Sample 87) was 0.9, the “fold change in IC50, pol” value ([1]; Sample 89 (L1001, K103N)) was 250.0 fold and the pol/PR-RT ratio ([1]; Sample 89 (L1001, K103N)) was 1.0. For the same compound, the “fold change in IC50, pol” value [1, 6] was 4.8 fold, the pol/PR-RT ratio [1, 6] was 1.1 and the “fold change in IC50, pol” value ([1]; Sample 92) was 0.8 fold. The pol/PR-RT ratio ([1]; Sample 92) was 0.8, the “fold change in IC50, pol” value ([1]; Sample 93) was 0.2 fold and the pol/PR-RT ratio ([1]; Sample 93) was 0.6. The “fold change in IC50, RHIN” value ([2]; Sample 31 (K103N)) was 1.1 fold, the “fold change in IC50, RHIN” value ([2]; Sample 33 (K103S)) was 0.7 fold and the “fold change in IC50, RHIN” value ([2]; Sample 34) was 0.7 fold. The “fold change in IC50, RHIN” value ([2]; Sample 35 (K103H)) was 0.8 fold, the “fold change in IC50, RHIN” value ([2]; Sample 36 (K103K/W)) was 0.9 fold and the “fold change in IC50, RHIN” value ([2]; Sample 38 (K103N)) was 0.5 fold. The “fold change in IC50, RHIN” value ([2]; Sample 39 (T369A)) was 1.2 fold, the “fold change in IC50, RHIN” value ([2]; Sample 42 (G190G/A)) was 0.5 fold and the “fold change in IC50, RHIN” value ([2]; Sample 45) was 1.0 fold. For the same compound, the “fold change in IC50, RHIN” value [2, 3] was 0.6 fold, the “fold change in IC50, RHIN” value ([2]; Sample 50 (K103N)) was 0.4 fold and the “fold change in IC50, RHIN” value ([2]; Sample 51) was 0.4 fold. The “fold change in IC50, RHIN” value ([2]; Sample 52) was 0.9 fold, the “fold change in IC50, RHIN” value [2, 4] was 1.5 fold and the “fold change in IC50, RHIN” value [2, 5] was 3.4 fold and 3.36 fold. For the same compound, the “fold change in IC50, RHIN” value ([2]; Sample 64 (T369T/A)) was 0.3 fold, the “fold change in IC50, RHIN” value ([2]; Sample 69) was 0.7 fold and the “fold change in IC50, RHIN” value ([2]; Sample 72) was 1.7 fold. The “fold change in IC50, RHIN” value ([2]; Sample 80 (K103K/N, Y181Y/C)) was 0.58 fold, the “fold change in IC50, RHIN” value ([2]; Sample 81 (K103N, P225H)) was 0.9 fold and the “fold change in IC50, RHIN” value ([2]; Sample 84) was 0.4 fold. The “fold change in IC50, RHIN” value ([2]; Sample 85) was 1.4 fold, the “fold change in IC50, RHIN” value ([2]; Sample 87) was 1.3 fold and the “fold change in IC50, RHIN” value ([2]; Sample 89 (L1001, K103N)) was 1.5 fold. For the same compound, the “fold change in IC50, RHIN” value [2, 6] was 0.6 fold, the “fold change in IC50, RHIN” value ([2]; Sample 92) was 0.3 fold and the “fold change in IC50, RHIN” value ([2]; Sample 93) was 0.7 fold.
